SMILES strings stand for the structures.

The record followed here is PMC6437697 (Journal of Medicinal Chemistry, 2019).

Holding throughout (experiment): KINOMEscan
What all share (format): binding
What all share (details): read-out: % control activity remaining

One experiment concerns the target T1, MERTK (Homo sapiens, UniProt Q12866).
T1 construct: purchased Eurofins DiscoverX KINOMEscan
T1 sequence (Q12866 21-999): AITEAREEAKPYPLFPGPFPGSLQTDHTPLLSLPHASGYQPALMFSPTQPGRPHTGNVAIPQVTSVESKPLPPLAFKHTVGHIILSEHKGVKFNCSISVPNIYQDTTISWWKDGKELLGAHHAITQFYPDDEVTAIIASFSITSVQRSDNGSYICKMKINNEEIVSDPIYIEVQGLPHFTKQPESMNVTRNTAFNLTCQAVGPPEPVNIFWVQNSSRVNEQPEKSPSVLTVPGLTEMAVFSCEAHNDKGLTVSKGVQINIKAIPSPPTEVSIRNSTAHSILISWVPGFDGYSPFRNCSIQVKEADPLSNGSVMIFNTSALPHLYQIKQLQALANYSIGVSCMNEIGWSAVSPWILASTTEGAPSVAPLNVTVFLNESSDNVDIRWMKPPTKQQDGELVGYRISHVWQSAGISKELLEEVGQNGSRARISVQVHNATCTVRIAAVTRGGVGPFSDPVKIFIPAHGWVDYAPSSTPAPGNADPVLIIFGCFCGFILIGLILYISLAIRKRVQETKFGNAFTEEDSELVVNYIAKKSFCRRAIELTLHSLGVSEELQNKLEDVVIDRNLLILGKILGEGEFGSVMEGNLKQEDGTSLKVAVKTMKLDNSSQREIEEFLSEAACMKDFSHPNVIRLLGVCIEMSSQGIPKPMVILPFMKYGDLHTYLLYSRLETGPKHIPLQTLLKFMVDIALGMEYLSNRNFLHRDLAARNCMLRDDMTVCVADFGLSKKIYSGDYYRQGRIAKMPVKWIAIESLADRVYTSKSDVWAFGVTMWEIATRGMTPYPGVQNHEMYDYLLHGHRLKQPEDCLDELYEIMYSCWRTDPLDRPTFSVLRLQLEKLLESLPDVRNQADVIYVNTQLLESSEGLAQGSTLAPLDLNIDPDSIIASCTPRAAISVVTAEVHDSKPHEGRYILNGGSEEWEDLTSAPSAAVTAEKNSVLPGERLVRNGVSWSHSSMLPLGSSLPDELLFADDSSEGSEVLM

A further experiment addresses T2, BRAF (Homo sapiens, UniProt P15056).
T2 construct: purchased Eurofins DiscoverX KINOMEscan

For a further experiment, the target named is T3, CSNK1G1 (Homo sapiens, UniProt Q9HCP0).
T3 construct: purchased Eurofins DiscoverX KINOMEscan
T3 sequence (Q9HCP0 whole entry): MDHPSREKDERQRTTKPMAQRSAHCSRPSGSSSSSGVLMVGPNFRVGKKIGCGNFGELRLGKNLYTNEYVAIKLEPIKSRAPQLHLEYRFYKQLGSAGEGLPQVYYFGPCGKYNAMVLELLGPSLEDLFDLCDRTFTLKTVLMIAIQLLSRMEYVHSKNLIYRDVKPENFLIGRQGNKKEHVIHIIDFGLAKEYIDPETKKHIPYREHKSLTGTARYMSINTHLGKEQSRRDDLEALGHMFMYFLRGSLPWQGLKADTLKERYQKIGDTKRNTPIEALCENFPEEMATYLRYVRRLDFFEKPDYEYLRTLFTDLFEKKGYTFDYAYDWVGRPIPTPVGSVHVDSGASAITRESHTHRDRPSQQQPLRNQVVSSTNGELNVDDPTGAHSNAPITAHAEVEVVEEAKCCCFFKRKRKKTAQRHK

In another experiment the target is T4, FES (Homo sapiens, UniProt P07332).
T4 construct: purchased Eurofins DiscoverX KINOMEscan
T4 sequence (P07332 whole entry): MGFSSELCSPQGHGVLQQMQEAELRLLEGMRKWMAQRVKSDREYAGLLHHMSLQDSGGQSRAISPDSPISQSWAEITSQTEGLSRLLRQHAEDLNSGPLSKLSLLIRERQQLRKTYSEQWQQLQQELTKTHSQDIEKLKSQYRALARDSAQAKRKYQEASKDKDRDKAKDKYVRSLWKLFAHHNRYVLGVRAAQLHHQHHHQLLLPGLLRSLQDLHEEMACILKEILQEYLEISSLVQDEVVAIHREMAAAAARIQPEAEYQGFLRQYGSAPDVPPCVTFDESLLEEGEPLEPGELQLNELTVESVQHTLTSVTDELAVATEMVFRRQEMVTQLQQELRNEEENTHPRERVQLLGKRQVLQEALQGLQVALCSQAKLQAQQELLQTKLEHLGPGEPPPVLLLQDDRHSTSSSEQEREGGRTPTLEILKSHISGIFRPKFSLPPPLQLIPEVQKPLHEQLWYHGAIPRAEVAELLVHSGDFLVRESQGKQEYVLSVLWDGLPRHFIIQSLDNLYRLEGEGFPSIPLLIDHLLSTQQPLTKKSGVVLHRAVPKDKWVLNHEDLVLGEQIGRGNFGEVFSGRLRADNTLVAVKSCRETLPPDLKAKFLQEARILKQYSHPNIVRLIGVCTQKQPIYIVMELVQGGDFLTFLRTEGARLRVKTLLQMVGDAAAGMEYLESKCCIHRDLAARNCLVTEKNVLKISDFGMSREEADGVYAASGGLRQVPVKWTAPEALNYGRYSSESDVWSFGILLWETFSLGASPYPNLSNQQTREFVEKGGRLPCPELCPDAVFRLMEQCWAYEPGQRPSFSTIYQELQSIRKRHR

Another experiment has as its target T5, PAK2 (Homo sapiens, UniProt Q13177).
T5 construct: purchased Eurofins DiscoverX KINOMEscan

The target of another experiment is T6, BMPR1B (Homo sapiens, UniProt O00238).
T6 construct: purchased Eurofins DiscoverX KINOMEscan
T6 sequence (O00238 14-502): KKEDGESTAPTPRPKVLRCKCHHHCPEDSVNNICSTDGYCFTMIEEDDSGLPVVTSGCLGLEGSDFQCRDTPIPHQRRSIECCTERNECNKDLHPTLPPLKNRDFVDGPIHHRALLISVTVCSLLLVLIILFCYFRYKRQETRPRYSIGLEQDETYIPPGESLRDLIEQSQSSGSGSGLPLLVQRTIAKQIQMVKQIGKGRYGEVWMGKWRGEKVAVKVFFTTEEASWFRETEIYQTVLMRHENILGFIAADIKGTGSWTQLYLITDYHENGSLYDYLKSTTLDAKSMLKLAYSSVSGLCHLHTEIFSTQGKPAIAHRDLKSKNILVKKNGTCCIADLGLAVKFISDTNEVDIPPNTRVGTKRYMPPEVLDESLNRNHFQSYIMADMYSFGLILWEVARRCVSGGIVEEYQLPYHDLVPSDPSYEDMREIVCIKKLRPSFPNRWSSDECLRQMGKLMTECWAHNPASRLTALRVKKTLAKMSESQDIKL

The target in a further experiment is T7, IKK-epsilon (Homo sapiens, UniProt Q14164).
T7 construct: purchased Eurofins DiscoverX KINOMEscan
T7 sequence (Q14164 1-716): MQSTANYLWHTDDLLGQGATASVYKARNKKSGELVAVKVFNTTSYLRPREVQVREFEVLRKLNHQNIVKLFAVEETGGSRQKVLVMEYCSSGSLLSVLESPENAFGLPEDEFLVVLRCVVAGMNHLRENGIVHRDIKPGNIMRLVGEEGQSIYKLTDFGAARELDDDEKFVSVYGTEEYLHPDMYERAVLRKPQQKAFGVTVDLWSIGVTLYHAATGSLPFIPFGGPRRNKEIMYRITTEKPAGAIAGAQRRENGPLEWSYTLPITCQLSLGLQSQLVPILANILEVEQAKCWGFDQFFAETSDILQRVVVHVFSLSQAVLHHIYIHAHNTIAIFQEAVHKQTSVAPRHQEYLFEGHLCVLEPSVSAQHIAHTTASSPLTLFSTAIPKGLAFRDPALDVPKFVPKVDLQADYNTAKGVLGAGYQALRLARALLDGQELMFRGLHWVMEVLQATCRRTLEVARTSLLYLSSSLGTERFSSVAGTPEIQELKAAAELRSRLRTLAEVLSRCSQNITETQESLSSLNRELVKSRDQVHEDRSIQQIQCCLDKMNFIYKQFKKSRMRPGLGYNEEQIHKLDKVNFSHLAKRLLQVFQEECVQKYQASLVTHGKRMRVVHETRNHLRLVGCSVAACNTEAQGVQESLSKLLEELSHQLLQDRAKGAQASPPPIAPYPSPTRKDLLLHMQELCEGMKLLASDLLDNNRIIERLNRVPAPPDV

Another experiment has as its target T8, NIK (Homo sapiens, UniProt Q99558).
T8 construct: purchased Eurofins DiscoverX KINOMEscan

Another experiment concerns the target T9, CDKL5 (Homo sapiens, UniProt O76039).
T9 construct: purchased Eurofins DiscoverX KINOMEscan
T9 sequence (O76039 1-960): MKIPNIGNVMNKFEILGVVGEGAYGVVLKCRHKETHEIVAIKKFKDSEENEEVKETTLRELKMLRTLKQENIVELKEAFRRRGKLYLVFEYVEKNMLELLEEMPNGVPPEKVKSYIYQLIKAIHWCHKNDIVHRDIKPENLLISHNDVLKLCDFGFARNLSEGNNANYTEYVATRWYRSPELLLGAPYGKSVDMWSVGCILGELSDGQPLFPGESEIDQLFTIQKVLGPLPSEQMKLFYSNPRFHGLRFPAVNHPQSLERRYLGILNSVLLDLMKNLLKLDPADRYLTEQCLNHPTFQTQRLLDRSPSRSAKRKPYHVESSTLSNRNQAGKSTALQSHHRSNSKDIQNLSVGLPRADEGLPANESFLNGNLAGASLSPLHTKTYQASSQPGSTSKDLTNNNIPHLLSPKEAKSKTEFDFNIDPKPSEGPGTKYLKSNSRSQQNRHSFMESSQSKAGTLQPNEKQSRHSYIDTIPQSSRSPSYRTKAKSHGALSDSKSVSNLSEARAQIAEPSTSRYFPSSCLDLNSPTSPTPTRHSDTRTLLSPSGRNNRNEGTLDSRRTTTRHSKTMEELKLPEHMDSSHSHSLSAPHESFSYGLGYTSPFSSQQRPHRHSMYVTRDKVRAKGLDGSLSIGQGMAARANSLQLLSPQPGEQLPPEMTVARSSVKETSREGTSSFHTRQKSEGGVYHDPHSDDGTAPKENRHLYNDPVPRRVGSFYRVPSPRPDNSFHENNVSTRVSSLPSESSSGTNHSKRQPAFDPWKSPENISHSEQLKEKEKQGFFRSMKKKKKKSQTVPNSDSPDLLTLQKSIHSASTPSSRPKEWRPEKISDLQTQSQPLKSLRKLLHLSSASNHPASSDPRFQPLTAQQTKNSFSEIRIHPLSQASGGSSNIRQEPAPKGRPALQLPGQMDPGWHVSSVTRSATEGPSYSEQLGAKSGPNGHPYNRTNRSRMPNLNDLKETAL

T5 sequence (Q13177 whole entry): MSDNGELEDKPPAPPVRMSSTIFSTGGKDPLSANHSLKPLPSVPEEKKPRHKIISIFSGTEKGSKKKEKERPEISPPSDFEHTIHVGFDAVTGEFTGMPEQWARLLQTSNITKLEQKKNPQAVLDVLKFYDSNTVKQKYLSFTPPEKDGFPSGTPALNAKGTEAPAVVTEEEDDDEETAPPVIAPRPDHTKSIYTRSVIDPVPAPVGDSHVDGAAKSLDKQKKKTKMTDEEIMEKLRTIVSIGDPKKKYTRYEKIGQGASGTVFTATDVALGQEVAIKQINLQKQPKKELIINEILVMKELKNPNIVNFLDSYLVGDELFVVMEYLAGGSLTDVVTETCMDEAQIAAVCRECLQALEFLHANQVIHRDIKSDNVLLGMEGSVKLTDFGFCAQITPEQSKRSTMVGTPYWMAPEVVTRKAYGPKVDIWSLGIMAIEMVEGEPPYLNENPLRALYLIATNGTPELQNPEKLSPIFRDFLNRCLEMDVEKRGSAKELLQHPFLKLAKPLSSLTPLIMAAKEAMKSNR
T8 sequence (Q99558 whole entry): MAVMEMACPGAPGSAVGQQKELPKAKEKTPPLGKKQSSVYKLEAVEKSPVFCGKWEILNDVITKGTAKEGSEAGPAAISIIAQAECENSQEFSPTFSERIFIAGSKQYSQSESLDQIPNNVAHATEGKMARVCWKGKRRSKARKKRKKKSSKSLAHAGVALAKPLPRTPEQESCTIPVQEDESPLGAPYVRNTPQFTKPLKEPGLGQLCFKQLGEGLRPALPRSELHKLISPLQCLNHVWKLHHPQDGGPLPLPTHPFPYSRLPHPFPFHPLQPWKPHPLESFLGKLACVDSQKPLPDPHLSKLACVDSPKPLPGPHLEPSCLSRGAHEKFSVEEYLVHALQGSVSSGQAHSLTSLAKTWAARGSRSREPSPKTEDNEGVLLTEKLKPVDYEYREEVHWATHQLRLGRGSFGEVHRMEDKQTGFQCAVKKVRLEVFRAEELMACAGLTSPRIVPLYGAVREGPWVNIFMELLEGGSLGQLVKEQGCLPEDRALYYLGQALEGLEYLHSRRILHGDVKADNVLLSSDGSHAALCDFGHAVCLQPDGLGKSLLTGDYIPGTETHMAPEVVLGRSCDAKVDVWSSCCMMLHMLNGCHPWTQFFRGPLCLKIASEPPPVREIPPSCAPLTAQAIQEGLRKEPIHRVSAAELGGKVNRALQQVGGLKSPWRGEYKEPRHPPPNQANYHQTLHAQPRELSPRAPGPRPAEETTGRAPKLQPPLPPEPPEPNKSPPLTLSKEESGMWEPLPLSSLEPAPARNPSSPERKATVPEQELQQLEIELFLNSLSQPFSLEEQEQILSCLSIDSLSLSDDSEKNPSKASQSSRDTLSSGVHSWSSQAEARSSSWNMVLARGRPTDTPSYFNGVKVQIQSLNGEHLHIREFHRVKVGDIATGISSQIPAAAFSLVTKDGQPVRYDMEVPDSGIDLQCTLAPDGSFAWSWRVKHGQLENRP
T2 sequence (P15056 whole entry): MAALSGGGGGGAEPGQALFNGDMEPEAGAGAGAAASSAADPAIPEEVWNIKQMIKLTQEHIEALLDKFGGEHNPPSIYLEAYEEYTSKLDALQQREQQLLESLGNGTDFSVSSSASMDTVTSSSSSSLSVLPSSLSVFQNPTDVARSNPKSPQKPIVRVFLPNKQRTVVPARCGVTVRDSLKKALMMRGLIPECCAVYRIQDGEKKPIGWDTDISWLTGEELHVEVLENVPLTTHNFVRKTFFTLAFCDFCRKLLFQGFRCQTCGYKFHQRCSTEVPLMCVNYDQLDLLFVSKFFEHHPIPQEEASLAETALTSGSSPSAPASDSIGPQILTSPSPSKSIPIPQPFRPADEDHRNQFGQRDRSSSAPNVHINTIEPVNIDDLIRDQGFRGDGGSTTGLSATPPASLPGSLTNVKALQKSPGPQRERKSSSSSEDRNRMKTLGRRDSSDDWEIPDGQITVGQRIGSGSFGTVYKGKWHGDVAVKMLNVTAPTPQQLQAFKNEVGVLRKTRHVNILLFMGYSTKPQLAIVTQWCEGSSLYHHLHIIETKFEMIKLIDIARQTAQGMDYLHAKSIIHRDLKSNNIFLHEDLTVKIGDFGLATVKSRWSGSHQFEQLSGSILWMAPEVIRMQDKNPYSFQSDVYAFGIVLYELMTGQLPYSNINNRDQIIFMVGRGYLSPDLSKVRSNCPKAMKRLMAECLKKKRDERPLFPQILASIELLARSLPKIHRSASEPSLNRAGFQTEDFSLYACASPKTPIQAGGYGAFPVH

`Clc1cc(NCC2CC2)c2ncc(-c3ccc4[nH]ncc4c3)n2n1` [compound 2, 6-Chloro-N-(cyclopropylmethyl)-3-(1H-indazol-5-yl)imidazo[1,2-b]pyridazin-8-amine]: the remaining binding at 1 µM was 100% at MERTK; 98% at BRAF; 100% on CSNK1G1; 87% on FES; 71% on PAK2; 100% at BMPR1B. For the same molecule, the remaining binding at 1 µM at IKK-epsilon came out at 94%; on NIK, 90%; on CDKL5, 100%.

Take `O=C(CN1CCOCC1)N[C@H]1CC[C@H](Nc2cc(Cl)nn3c(-c4ccc5[nH]ncc5c4)cnc23)CC1` [compound 26]: the remaining binding at 1 µM at MERTK is 70%; at BRAF, 98%; at CSNK1G1, 95%; at FES, 88%; at PAK2, 76%; at BMPR1B it was 100%. Also, the remaining binding at 1 µM amounted to 100% on IKK-epsilon, 78% at NIK and 46% on CDKL5.

Take `CN1CCC(CNc2cc(Cl)nn3c(-c4cc5nc(Nc6ccccc6)[nH]c5cc4F)cnc23)CC1` [compound 31, 6-Chloro-3-(6-fluoro-2-(phenylamino)-1H-benzo[d]imidazol-5-yl)-N-((1-methylpiperidin-4-yl)methyl)imidazo[1,2-b]pyridazin-8-amine]: the remaining binding at 1 µM came to 82% at MERTK; 96% at BRAF; 100% on CSNK1G1; 96% at FES; 91% on PAK2; 67% at BMPR1B. The remaining binding at 1 µM at IKK-epsilon worked out at 78%; at NIK it was 92%; on CDKL5 it was 96%.
